Results taken from patent US20170094996A1, “PROCESS FOR REBAUDIOSIDE D” (EPC (BEIJING) NATURAL PRODUCTS CO., LTD., priority 2009, published 2017).

What was measured:
[1] = Sensorical analysis of 3 samples steviol-glycosides, trained panel of 6 test persons; type: in vivo, human; details: 200 ppm solutions in water, 100 ml, blinded
Description: Trained panel of 6 test persons.
Samples were prepared as 200 ppm solutions in water (same temperature).
Each test person received 3 equal glasses with 100 ml of prepared sample. The glasses were denoted with random 3-digit numbers.
The question asked was: “Can you taste a difference between the samples and if so please describe the difference in plain text”.
After the tasting period, the panel exchanged the individual opinions and came to following conclusion (the nature of sample was kept hidden until the conclusion was reached): […]

[2] = compared with stevioside; Phytochemistry 68, 2007, 1855-1863; cited from earlier work

## C=C1C[C@@]23CC[C@H]4[C@@](C)(CCC[C@@]4(C)C(=O)O[C@@H]4O[C@H](CO)[C@@H](O)[C@H](O)[C@H]4O)[C@@H]2CC[C@]1(O[C@@H]1O[C@H](CO)[C@@H](O)[C@H](O[C@@H]2O[C@H](CO)[C@@H](O)[C@H](O)[C@H]2O)[C@H]1O[C@@H]1O[C@H](CO)[C@@H](O)[C@H](O)[C@H]1O)C3 [Rebaudioside A]
[1]
  bitter after taste (panel conclusion): slight bitter after taste
  sweetness compared with the other samples (panel conclusion): slightly less sweet than the 2 other samples
[2]
  taste quality: better than stevioside
